Here are results for nine compounds from BindingDB's records for PubMed 1652050 (Seattle Veterans Affairs Medical Center, 1991).

Molecules are shown by their SMILES. Where “and” joins values, the source holds several entries; their conditions need not be identical. Identical values can stand only once. Where only a bound is given, the exact number is not on record here.

For the test, the target named is 5-hydroxytryptamine receptor 1D (Homo sapiens, UniProt P28221).
Sequence of 5-hydroxytryptamine receptor 1D (P28221 whole entry): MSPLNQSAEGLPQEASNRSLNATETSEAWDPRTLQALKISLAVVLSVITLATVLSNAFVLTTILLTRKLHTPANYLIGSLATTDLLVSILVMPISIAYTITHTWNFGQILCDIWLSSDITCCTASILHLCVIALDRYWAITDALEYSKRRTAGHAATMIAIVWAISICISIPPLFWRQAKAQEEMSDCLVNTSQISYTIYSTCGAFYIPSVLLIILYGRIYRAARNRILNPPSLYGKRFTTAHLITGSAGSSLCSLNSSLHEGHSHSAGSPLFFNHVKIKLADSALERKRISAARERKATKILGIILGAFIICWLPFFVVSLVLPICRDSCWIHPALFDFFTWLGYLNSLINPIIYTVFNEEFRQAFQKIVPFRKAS

Consider `CN1C2CCC1CC(OC(=O)c1c[nH]c3ccccc13)C2` (centres undefined), for which the inhibitory constant (Ki) – broadly, a measure of affinity in units of concentration, obtained from inhibition or displacement – was more than 10 µM.

The compound `CN1CC(C(=O)N[C@]2(C)O[C@@]3(O)C4CCCN4C(=O)[C@H](Cc4ccccc4)N3C2=O)CC2c3cccc4[nH]cc(c34)CC21` (stereo partly drawn) [7-Methyl-4,6,6a,7,8,9,10,10a-octahydro-indolo[4,3-fg]quinoline-9-carboxylic acid ((2R,5S,10bS)-5-benzyl-10b-hydroxy-2-methyl-3,6-dioxo-octahydro-oxazolo[3,2-a]pyrrolo[2,1-c]pyrazin-2-yl)-amide] came in with a Ki of 0.00013 µM.

On to `O=C(CCCN1CCC2(CC1)C(=O)NCN2c1ccccc1)c1ccc(F)cc1` [8-[4-(4-fluorophenyl)-4-oxidanylidene-butyl]-1-phenyl-1,3,8-triazaspiro[4.5]decan-4-one], for which the affinity, expressed as Ki, was 3.1 µM.

Turning to `CN1C[C@@H](NS(=O)(=O)N(C)C)C[C@@H]2c3cccc4c3c(cn4C)C[C@H]21` [MESULERGINE], the Ki came to 1.7 µM.

With `CN1C[C@H](CNC(=O)OCc2ccccc2)C[C@@H]2c3cccc4c3c(cn4C)C[C@H]21` [METERGOLINE], the affinity, expressed as Ki, was 0.00061 µM.

With `CC(C)(C)NCC(O)COc1cccc2[nH]c(C#N)cc12` (centres undefined) [NSC_155346], the Ki stood at 0.085 µM.

In the case of `Clc1cccc(N2CCNCC2)c1` [mCPP], the affinity corresponds to a Ki of 0.21 µM.

As to `CSc1ccc2c(c1)C(N1CCN(C)CC1)Cc1ccccc1S2` (centres undefined) [methanesulfonic acid;1-methyl-4-(3-methylsulfanyl-5,6-dihydrobenzo[b][1]benzothiepin-5-yl)piperazine], affinity was put at a Ki of 0.0058 µM.

As for `COC(=O)[C@@H]1[C@H]2C[C@H]3c4[nH]c5ccccc5c4CCN3C[C@@H]2CC[C@@H]1O` [yohimbic acid methyl ester], the Ki is 0.059 µM and 0.051 µM.
